# Experimental data from US20140256656A1, “D-MANNOSE CONTRACEPTIVES” (Bio-Tech Pharmacal, Inc., priority 2002, published 2014).
# What was measured:
# [1] = tested on: sperm adhering or attaching to the egg; assay: Equine-field observation of conception after D-Mannose; type: in vivo; conditions: D-Mannose in sufficient quantities at the appropriate times
# Text: In the equine field, Mr. […] Accordingly, the invention finds application in all fields of mammal animal husbandry to prevent unwanted cross-breeding, and to also prevent unwanted unproductive periods that are caused by undesired breeding.
# bacteria = conditions: as described in the referenced earlier patents and applications of Dale Benedict; cited from earlier work
structure (smiles),measurement,setting,value
O=C[C@@H](O)[C@@H](O)[C@H](O)[C@H](O)CO [D-Mannose],likelihood of conception,[1],reduces the likelihood of conception
same,adherence of bacteria to membranes or cell walls,bacteria,inhibits the adherence of bacteria to membranes or cell walls
